System: SUM149PT spheroids with HUVEC/MSC, viability
Assay: Anticancer human tumor SUM149PT cell line growth inhibition [GQUAD];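 note: spheroids exposed to drugs for seven days before readout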;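 for viability, T/C: percent viability relative to DMSO vehicle control taken as 100%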
Settings: for IC50: curve of first compound; for viability, T/C: stronger effect = lower value
Outline: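 Multi-cell-type spheroids of tumor cells with HUVEC and mesenchymal stem cells, treated with drug combinations. Concentrations descend in half-log steps from near clinical Cmax, or from 10 microM where Cmax is unknown; viability read-out.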

[1] = second compound 0.0316 µM, first compound 0.0316 µM
[2] = second compound 0.0316 µM, first compound 0.1 µM
[3] = second compound 0.0316 µM, first compound 0.316 µM
[4] = second compound 0.0316 µM, first compound 1 µM
[5] = second compound 0.0316 µM, first compound 3.16 µM
[6] = second compound 0.0316 µM, first compound 10 µM
[7] = second compound 0.1 µM, first compound 0.0316 µM
[8] = second compound 0.1 µM, first compound 0.1 µM
[9] = second compound 0.1 µM, first compound 0.316 µM
[10] = second compound 0.1 µM, first compound 1 µM
[11] = second compound 0.1 µM, first compound 3.16 µM
[12] = second compound 0.1 µM, first compound 10 µM
[13] = second compound 0.316 µM, first compound 0.0316 µM
[14] = second compound 0.316 µM, first compound 0.1 µM
[15] = second compound 0.316 µM, first compound 0.316 µM
[16] = second compound 0.316 µM, first compound 1 µM
[17] = second compound 0.316 µM, first compound 3.16 µM
[18] = second compound 0.316 µM, first compound 10 µM
[19] = second compound 1 µM, first compound 0.0316 µM
[20] = second compound 1 µM, first compound 0.1 µM
[21] = second compound 1 µM, first compound 0.316 µM
[22] = second compound 1 µM, first compound 1 µM
[23] = second compound 1 µM, first compound 3.16 µM
[24] = second compound 1 µM, first compound 10 µM
[25] = second compound 3.16 µM, first compound 0.0316 µM
[26] = second compound 3.16 µM, first compound 0.1 µM
[27] = second compound 3.16 µM, first compound 0.316 µM
[28] = second compound 3.16 µM, first compound 1 µM
[29] = second compound 3.16 µM, first compound 3.16 µM
[30] = second compound 3.16 µM, first compound 10 µM
[31] = second compound 10 µM, first compound 0.0316 µM
[32] = second compound 10 µM, first compound 0.1 µM
[33] = second compound 10 µM, first compound 0.316 µM
[34] = second compound 10 µM, first compound 1 µM
[35] = second compound 10 µM, first compound 3.16 µM
[36] = second compound 10 µM, first compound 10 µM

Q: `CC1COCCN1c1cc(C2(S(C)(=N)=O)CC2)nc(-c2ccnc3[nH]ccc23)n1` (centres undefined) + Cc1[nH]c2ccc(F)cc2c1-c1nc2c3cccnc3c3ncccc3c2[nH]1 was tested. Which IC50 (second compound 0.0316 µM) did it give?
A: 2380 nM

Q: What about the IC50 (second compound 0.1 µM) of the same molecule?
A: 2650 nM

Q: And the IC50 (second compound 0.316 µM)?
A: 2830 nM

Q: And the IC50 (second compound 1 µM)?
A: 2630 nM

Q: What about the IC50 (second compound 3.16 µM) of the same molecule?
A: 2450 nM

Q: And the IC50 (second compound 10 µM)?
A: 2170 nM

Q: And the viability, T/C [1]?
A: 95.9%

Q: What about the viability, T/C [2] of the same molecule?
A: 93.6%

Q: And the viability, T/C [3]?
A: 99.7%

Q: What about the viability, T/C [4] of the same molecule?
A: 79.5%

Q: What about the viability, T/C [5] of the same molecule?
A: 40.5%

Q: And the viability, T/C [6]?
A: 17.3%

Q: And the viability, T/C [7]?
A: 112%

Q: What about the viability, T/C [8] of the same molecule?
A: 99.5%

Q: What about the viability, T/C [9] of the same molecule?
A: 86.7%

Q: What about the viability, T/C [10] of the same molecule?
A: 89.2%

Q: What about the viability, T/C [11] of the same molecule?
A: 41.9%

Q: And the viability, T/C [12]?
A: 22.6%

Q: And the viability, T/C [13]?
A: 103%

Q: And the viability, T/C [14]?
A: 105%

Q: What about the viability, T/C [15] of the same molecule?
A: 89.8%

Q: And the viability, T/C [16]?
A: 83.6%

Q: And the viability, T/C [17]?
A: 45%

Q: And the viability, T/C [18]?
A: 20.6%

Q: What about the viability, T/C [19] of the same molecule?
A: 91.9%

Q: What about the viability, T/C [20] of the same molecule?
A: 100%

Q: And the viability, T/C [21]?
A: 97.1%

Q: What about the viability, T/C [22] of the same molecule?
A: 83.9%

Q: And the viability, T/C [23]?
A: 43.5%

Q: And the viability, T/C [24]?
A: 19.6%

Q: And the viability, T/C [25]?
A: 86.5%

Q: What about the viability, T/C [26] of the same molecule?
A: 84.9%

Q: And the viability, T/C [27]?
A: 89.7%

Q: And the viability, T/C [28]?
A: 75.4%

Q: What about the viability, T/C [29] of the same molecule?
A: 42.8%

Q: And the viability, T/C [30]?
A: 19%

Q: And the viability, T/C [31]?
A: 103%

Q: And the viability, T/C [32]?
A: 96.5%

Q: And the viability, T/C [33]?
A: 94.3%

Q: What about the viability, T/C [34] of the same molecule?
A: 79.5%

Q: And the viability, T/C [35]?
A: 35.6%

Q: What about the viability, T/C [36] of the same molecule?
A: 18.3%

Q: What does the source list for `O=C(c1cc(Cc2n[nH]c(=O)c3ccccc23)ccc1F)N1CCN(C(=O)C2CC2)CC1` + Cc1[nH]c2ccc(F)cc2c1-c1nc2c3cccnc3c3ncccc3c2[nH]1?
A: IC50 (second compound 0.0316 µM): > 10000 nM; IC50 (second compound 0.1 µM): > 10000 nM; IC50 (second compound 0.316 µM): > 10000 nM; IC50 (second compound 1 µM): > 10000 nM; IC50 (second compound 3.16 µM): > 10000 nM; IC50 (second compound 10 µM): > 10000 nM; viability, T/C [1]: 105%; viability, T/C [2]: 97.4%; viability, T/C [3]: 98.5%; viability, T/C [4]: 103%; viability, T/C [5]: 93.2%; viability, T/C [6]: 80.3%; viability, T/C [7]: 102%; viability, T/C [8]: 96.8%; viability, T/C [9]: 96.5%; viability, T/C [10]: 99.8%; viability, T/C [11]: 108%; viability, T/C [12]: 76.9%; viability, T/C [13]: 93.8%; viability, T/C [14]: 95.1%; viability, T/C [15]: 103%; viability, T/C [16]: 111%; viability, T/C [17]: 96.6%; viability, T/C [18]: 74.8%; viability, T/C [19]: 99.9%; viability, T/C [20]: 97.6%; viability, T/C [21]: 108%; viability, T/C [22]: 100%; viability, T/C [23]: 100%; viability, T/C [24]: 69.2%; viability, T/C [25]: 89.9%; viability, T/C [26]: 96.4%; viability, T/C [27]: 98.4%; viability, T/C [28]: 99.6%; viability, T/C [29]: 95.8%; viability, T/C [30]: 75.2%; viability, T/C [31]: 86.8%; viability, T/C [32]: 86.6%; viability, T/C [33]: 82.4%; viability, T/C [34]: 101%; viability, T/C [35]: 102%; viability, T/C [36]: 73.5%
